The values below come from US20260248824A1, “LIPID NANOPARTICLES” (SHIZUOKA PREFECTURAL UNIVERSITY CORPORATION, priority 2023, published 2026).

The assay deals with Insulinoma INS-1 cells derived from rat pancreatic β cells. Put plainly: Antiapoptotic effects on pancreatic β cells (cleaved caspase-3 western blotting, thapsigargin-induced). To be noted: thapsigargin 300 nM, nobiletin concentration 20 μM, 14 hours, FIG. 20. Type of assay: cell-based.

Experimental: Insulinoma INS-1 cells derived from rat pancreatic β cells were seeded into a 6-well dish at 8×10^5 cells/well. […] After 14 hours of treatment, the cells were collected and subjected to SDS-PAGE, and protein expression in pancreatic β cells was analyzed by western blotting using a cleaved caspase-3 antibody as an indicator of apoptosis. Correction was made using the expression level of 3-actin as an internal standard.

With `COc1ccc(-c2cc(=O)c3c(OC)c(OC)c(OC)c(OC)c3o2)cc1OC` [nobiletin alone, nobiletin], the “Suppression of thapsigargin-induced increase in cleaved caspase 3 (antiapoptotic activity)” value is listed as “The effects were comparative with nobiletin alone”.
